Test results taken from ChEMBL document CHEMBL1129930, “Analogues of methotrexate in rheumatoid arthritis. 2. Effects of 5-deazaaminopterin, 5,10-dideazaaminopterin, and analogues on type II collagen-induced arthritis in mice” (J Med Chem, 1997).

How the values were obtained:
[1] = test system: Mus musculus; assay: Incidence of disease (mouse type II collagen) was scored as the percentage of animals within each experimental group that exhibited joint or limb inflammation on day 30 at intraperitoneal dose of 0.38 mg/kg (deaths observed at 1.5 mg/kg); format: functional
[2] = test system: Mus musculus; assay: Tested for antiinflammatory activity on mouse type II collagen arthritis as Paw swelling of all animals in each group on day 37 at intraperitoneal dose of 0.75 mg/kg; format: functional
[3] = test system: Mus musculus; assay: Tested for antiinflammatory activity on mouse type II collagen arthritis as Paw swelling of all animals in each group on day 44 at intraperitoneal dose of 0.19 mg/kg; format: functional
[4] = test system: Mus musculus; assay: Tested for antiinflammatory activity on mouse type II collagen arthritis as Paw swelling of all animals in each group on day 44 at intraperitoneal dose of 0.047 mg/kg; format: functional
[5] = test system: Mus musculus; assay: Incidence of disease (mouse type II collagen) was scored as the percentage of animals within each experimental group that exhibited joint or limb inflammation on day 23 at intraperitoneal dose of 0.047 mg/kg (deaths observed at 1.5 mg/kg); format: functional
[6] = test system: Mus musculus; assay: Incidence of disease (mouse type II collagen) was scored as the percentage of animals within each experimental group that exhibited joint or limb inflammation on day 23 at intraperitoneal dose of 0.75 mg/kg (deaths observed at 1.5 mg/kg); format: functional
[7] = test system: Mus musculus; assay: Incidence of disease (mouse type II collagen) was scored as the percentage of animals within each experimental group that exhibited joint or limb inflammation on day 30 at intraperitoneal dose of 0.75 mg/kg (deaths observed at 1.5 mg/kg); format: functional
[8] = test system: Mus musculus; assay: Incidence of disease (mouse type II collagen) was scored as the percentage of animals within each experimental group that exhibited joint or limb inflammation on day 30 at intraperitoneal dose of 0.024 mg/kg (deaths observed at 1.5 mg/kg); format: functional
[9] = test system: Mus musculus; assay: Tested for antiinflammatory activity on mouse type II collagen arthritis as Paw swelling of all animals in each group on day 37 at intraperitoneal dose of 0.19 mg/kg; format: functional
[10] = test system: Mus musculus; assay: Tested for antiinflammatory activity on mouse type II collagen arthritis as Paw swelling of all animals in each group on day 44 at intraperitoneal dose of 0.38 mg/kg; format: functional
[11] = test system: Mus musculus; assay: Incidence of disease (mouse type II collagen) was scored as the percentage of animals within each experimental group that exhibited joint or limb inflammation on day 30 at intraperitoneal dose of 0.047 mg/kg (deaths observed at 1.5 mg/kg); format: functional
[12] = test system: Mus musculus; assay: Tested for antiinflammatory activity on mouse type II collagen arthritis as Paw swelling of all animals in each group on day 30 at intraperitoneal dose of 0.19 mg/kg; format: functional
[13] = test system: Mus musculus; assay: Incidence of disease (mouse type II collagen) was scored as the percentage of animals within each experimental group that exhibited joint or limb inflammation on day 37 at intraperitoneal dose of 0.19 mg/kg (deaths observed at 1.5 mg/kg); format: functional
[14] = test system: L1210; assay: Concentration required to inhibit the growth of L1210 cells.; format: functional, cell-based; details: Mus musculus
[15] = test system: Mus musculus; assay: Tested for antiinflammatory activity on mouse type II collagen arthritis as Paw swelling of all animals in each group on day 23 at intraperitoneal dose of 0.024 mg/kg; format: functional
[16] = test system: Mus musculus; assay: Tested for antiinflammatory activity on mouse type II collagen arthritis as Paw swelling of all animals in each group on day 23 at intraperitoneal dose of 0.75 mg/kg; format: functional
[17] = test system: Mus musculus; assay: Incidence of disease (mouse type II collagen) was scored as the percentage of animals within each experimental group that exhibited joint or limb inflammation on day 44 at intraperitoneal dose of 0.38 mg/kg (deaths observed at 1.5 mg/kg); format: functional
[18] = test system: Mus musculus; assay: Incidence of disease (mouse type II collagen) was scored as the percentage of animals within each experimental group that exhibited joint or limb inflammation on day 44 at intraperitoneal dose of 0.047 mg/kg (deaths observed at 1.5 mg/kg); format: functional
[19] = test system: Mus musculus; assay: Incidence of disease (mouse type II collagen) was scored as the percentage of animals within each experimental group that exhibited joint or limb inflammation on day 44 at intraperitoneal dose of 0.19 mg/kg (deaths observed at 1.5 mg/kg); format: functional
[20] = test system: Mus musculus; assay: Tested for antiinflammatory activity on mouse type II collagen arthritis as Paw swelling of all animals in each group on day 30 at intraperitoneal dose of 0.024 mg/kg; format: functional
[21] = test system: Mus musculus; assay: Tested for antiinflammatory activity on mouse type II collagen arthritis as Paw swelling of all animals in each group on day 23 at intraperitoneal dose of 0.094 mg/kg; format: functional
[22] = test system: Mus musculus; assay: Tested for antiinflammatory activity on mouse type II collagen arthritis as Paw swelling of all animals in each group on day 30 at intraperitoneal dose of 0.75 mg/kg; format: functional
[23] = test system: Mus musculus; assay: Incidence of disease (mouse type II collagen) was scored as the percentage of animals within each experimental group that exhibited joint or limb inflammation on day 44 at intraperitoneal dose of 0.094 mg/kg (deaths observed at 1.5 mg/kg); format: functional
[24] = test system: Mus musculus; assay: Tested for antiinflammatory activity on mouse type II collagen arthritis as Paw swelling of all animals in each group on day 44 at intraperitoneal dose of 0.75 mg/kg; format: functional
[25] = test system: Mus musculus; assay: Incidence of disease (mouse type II collagen) was scored as the percentage of animals within each experimental group that exhibited joint or limb inflammation on day 30 at intraperitoneal dose of 0.19 mg/kg (deaths observed at 1.5 mg/kg); format: functional
[26] = test system: Mus musculus; assay: Incidence of disease (mouse type II collagen) was scored as the percentage of animals within each experimental group that exhibited joint or limb inflammation on day 23 at intraperitoneal dose of 0.19 mg/kg (deaths observed at 1.5 mg/kg); format: functional
[27] = Concentration required to inhibit the growth of chang liver cells.; format: functional; details: Homo sapiens
[28] = test system: Mus musculus; assay: Tested for antiinflammatory activity on mouse type II collagen arthritis as Paw swelling of all animals in each group on day 30 at intraperitoneal dose of 0.047 mg/kg; format: functional
[29] = test system: Mus musculus; assay: Tested for antiinflammatory activity on mouse type II collagen arthritis as Paw swelling of all animals in each group on day 37 at intraperitoneal dose of 0.047 mg/kg; format: functional
[30] = test system: Mus musculus; assay: Tested for antiinflammatory activity on mouse type II collagen arthritis as Paw swelling of all animals in each group on day 23 at intraperitoneal dose of 0.047 mg/kg; format: functional
[31] = test system: Mus musculus; assay: Tested for antiinflammatory activity on mouse type II collagen arthritis as Paw swelling of all animals in each group on day 30 at intraperitoneal dose of 0.38 mg/kg; format: functional
[32] = test system: Mus musculus; assay: Incidence of disease (mouse type II collagen) was scored as the percentage of animals within each experimental group that exhibited joint or limb inflammation on day 44 at intraperitoneal dose of 0.75 mg/kg (deaths observed at 1.5 mg/kg); format: functional
[33] = test system: Mus musculus; assay: Incidence of disease (mouse type II collagen) was scored as the percentage of animals within each experimental group that exhibited joint or limb inflammation on day 23 at intraperitoneal dose of 0.38 mg/kg (deaths observed at 1.5 mg/kg); format: functional

Compound: CCc1c(CN(C)c2ccc(C(=O)NC(CCC(=O)O)C(=O)O)cc2)cnc2nc(N)nc(N)c12 (stereo not drawn)
- Animals [1]: 0%
- Paw swelling [2]: 2.2 mm
- Paw swelling [3]: 2.2 mm
- Paw swelling [4]: 2.57 mm
- Animals [5]: 0%
- Animals [6]: 0%
- Animals [7]: 14%
- Animals [8]: 0%
- Paw swelling [9]: 2.17 mm
- Paw swelling [10]: 2.15 mm
- Animals [11]: 12%
- Paw swelling [12]: 2.14 mm
- Animals [13]: 12%
- IC50 [14]: 1 nM
- Paw swelling [15]: 2.12 mm
- Paw swelling [16]: 2.14 mm
- Animals [17]: 0%
- Animals [18]: 88%
- Animals [19]: 12%
- Paw swelling [20]: 2.22 mm
- Paw swelling [21]: 2.15 mm
- Paw swelling [22]: 2.2 mm
- Animals [23]: 25%
- Paw swelling [24]: 2.18 mm
- Animals [25]: 12%
- Animals [26]: 0%
- IC50 [27]: 89 nM
- Paw swelling [28]: 2.21 mm
- Paw swelling [29]: 2.33 mm
- Paw swelling [30]: 2.1 mm
- Paw swelling [31]: 2.16 mm
- Animals [32]: 14%
- Animals [33]: 0%
